Assay results reported in ChEMBL document CHEMBL1201862, “PubChem BioAssay data set” (2004).
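Grown in 96-well plates, cells were treated for 48 hours with each compound at five concentrations. Insufficient inhibition: endpoint recorded as highest concentration tested. At the GI50, growth is halved.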 Active and inactive are the calls of the source. Cut-off read from the data, not from the text of the source: active = GI50 up to about 1.1 µM and inactive = higher.

Columns and labels:
Assay in all cases: NCI tumour cell line growth inhibition, 48 h
T47D = test system: T47D
IGROV-1 = test system: IGROV-1
K562 = test system: K562
CAKI-1 = test system: CAKI-1
UACC-257 = test system: UACC-257
BT-549 = test system: BT-549
SF-295 = test system: SF-295
SK-OV-3 = test system: SK-OV-3
HL-60 = test system: HL-60
NCI/ADR-RES = test system: NCI/ADR-RES
TK-10 = test system: TK-10
HT-29 = test system: HT-29
NCI-H226 = test system: NCI-H226
DMS-273 = test system: DMS-273
SK-MEL-28 = test system: SK-MEL-28
CCRF-CEM = test system: CCRF-CEM
KM12 = test system: KM12
SNB-75 = test system: SNB-75
Hs-578T = test system: Hs-578T
RXF 393 = test system: RXF 393

Structure (SMILES) | GI50 (T47D) | GI50 (IGROV-1) | GI50 (K562) | GI50 (CAKI-1) | GI50 (UACC-257) | GI50 (BT-549) | GI50 (SF-295) | GI50 (SK-OV-3) | GI50 (HL-60) | GI50 (NCI/ADR-RES) | GI50 (TK-10) | GI50 (HT-29) | GI50 (NCI-H226) | GI50 (DMS-273) | GI50 (SK-MEL-28) | GI50 (CCRF-CEM) | GI50 (KM12) | GI50 (SNB-75) | GI50 (Hs-578T) | GI50 (RXF 393)
CCCCCCCCCCCCCCCCCCOCC(COCCOCC[N+]1(CCCCCC(=O)[O-])CCCC1)Oc1ncccn1 (stereo not given) | 5.13 µM (inactive) | 0.622 µM (active) | 2.19 µM (inactive) | 9.51 µM (inactive) | 8.02 µM (inactive) | 7.29 µM (inactive) | 4.88 µM (inactive) | 3.87 µM (inactive) | 0.395 µM (active) | 15.4 µM (inactive) | 4.06 µM (inactive) | 1.73 µM (inactive) | 11.2 µM (inactive) | 0.37 µM (active) | 6.68 µM (inactive) | 2.59 µM (inactive) | 2.58 µM (inactive) | 2.61 µM (inactive) | 13.6 µM (inactive) | 1.4 µM (inactive)
COC12C(COC(=O)NCCO)C3=C(C(=O)C(C)=C(N)C3=O)N1CC1NC12 (stereo not given) | 60.3 µM (inactive) | 29.2 µM (inactive) | 103 µM (inactive) | 2.77 µM (inactive) | 69.7 µM (inactive) | 54.5 µM (inactive) | 6.62 µM (inactive) | 24.4 µM (inactive) | 58.9 µM (inactive) | > 264 µM (inactive) | 83.2 µM (inactive) | 29.2 µM (inactive) | 16.9 µM (inactive) | 2.52 µM (inactive) | > 100 µM (inactive) | 12.1 µM (inactive) | 69.3 µM (inactive) | 17.4 µM (inactive) | 198 µM (inactive) | 24 µM (inactive)
CC1=CC(=O)c2ccc3c4ccccc4n(C)c3c2C1=O | 33.8 µM (inactive) | 16.9 µM (inactive) | 16.1 µM (inactive) | 36.2 µM (inactive) | 46.3 µM (inactive) | 41.8 µM (inactive) | > 54.5 µM (inactive) | > 100 µM (inactive) | 22.8 µM (inactive) | > 100 µM (inactive) | > 100 µM (inactive) | > 31.6 µM (inactive) | > 94.4 µM (inactive) | 43.4 µM (inactive) | 60.7 µM (inactive) | 20.8 µM (inactive) | 34.4 µM (inactive) | 54.1 µM (inactive) | 62.8 µM (inactive) | 43.6 µM (inactive)
